Legend:
[1] = target: Transthyretin (Homo sapiens) (UniProt P02766); assay: Ability to displace L-[125I]thyoxine from the high affinity prealbumin binding site was expressed as ratio of its apparent association constant to that of DL-thyroxine
[2] = target: Transthyretin (Homo sapiens) (UniProt P02766); assay: Ability to displace L-[125I]thyoxine from the high affinity prealbumin binding site was expressed as ratio of its apparent association constant to that of L-thyroxine

Row | SMILES | Ka(T4) [1] | Ka(T4) [2]
1 | NC(Cc1cc(I)c(Oc2ccc(O)c3ccccc23)c(I)c1)C(=O)O (configuration not stated) | 1.6% | –
2 | NC(Cc1cc(I)c(Oc2cccc3c(O)cccc23)c(I)c1)C(=O)O (configuration not stated) | 6.3% | –
3 | NC(Cc1cc(I)c(Oc2cc(Br)c(O)c3ccccc23)c(I)c1)C(=O)O (configuration not stated) | 28.7% | –
4 | NC(Cc1cc(I)c(Oc2ccc(O)c(Br)c2)c(I)c1)C(=O)O (configuration not stated) | 1.6% | –
5 | NC(Cc1cc(I)c(Oc2cccc3ccc(O)cc23)c(I)c1)C(=O)O (configuration not stated) | – | 0.7%

Now from value to compound:

Row | Ka(T4) [1] | Ka(T4) [2] | SMILES
6 | 8.6% | – | NC(Cc1cc(I)c(Oc2cc(Br)c(O)c(Br)c2)c(I)c1)C(=O)O (configuration not stated)
7 | 0.3% | – | NC(Cc1cc(I)c(Oc2ccc(O)cc2)c(I)c1)C(=O)O (configuration not stated)

Source: ChEMBL document CHEMBL1122087, “Computer graphics in drug design: molecular modeling of thyroid hormone-prealbumin interactions” (J Med Chem, 1982)
